Source: patent publication US12049518B2, “Pharmacokinetics and cholecystokinin-2 receptor (CCK2R) targeting for diagnosis and therapy” (Medizinische Universitat Innsbruck, priority 2017, dated 2024)
Read-outs that look alike come from different tables or passages of the source. Where a SMILES comes first, the peptide text is derived from it. [ ]: non-standard residue; d: D form. The star is where a group is joined. DOTA = O=C(O)CN1CCN(CC(=O)O)CCN(CC(=O)*)CCN(CC(=O)O)CC1; 1Nal = N[C@@H](Cc1cccc2ccccc12)C(=O)O; NMeNle = CCCC[C@H](NC)C(=O)O

Experiments:
human CCK2R = molecular target: T1, human CCK2R (Homo sapiens, UniProt P32239); experiment: CCK2R competition binding assay against [125I]Tyr12-gastrin-I on A431-CCK2R cells; conditions: displacement of [125I]Tyr12-gastrin-I, A431-CCK2R cells, 1 h at RT; read-out: IC50
T1 construct: expressed in transfected cells; host or cells: A431 human epidermoid carcinoma cells (A431-CCK2R), plasmid pCR3.1, provided by Dr. Luigi Aloj
T1 sequence (P32239 1-447): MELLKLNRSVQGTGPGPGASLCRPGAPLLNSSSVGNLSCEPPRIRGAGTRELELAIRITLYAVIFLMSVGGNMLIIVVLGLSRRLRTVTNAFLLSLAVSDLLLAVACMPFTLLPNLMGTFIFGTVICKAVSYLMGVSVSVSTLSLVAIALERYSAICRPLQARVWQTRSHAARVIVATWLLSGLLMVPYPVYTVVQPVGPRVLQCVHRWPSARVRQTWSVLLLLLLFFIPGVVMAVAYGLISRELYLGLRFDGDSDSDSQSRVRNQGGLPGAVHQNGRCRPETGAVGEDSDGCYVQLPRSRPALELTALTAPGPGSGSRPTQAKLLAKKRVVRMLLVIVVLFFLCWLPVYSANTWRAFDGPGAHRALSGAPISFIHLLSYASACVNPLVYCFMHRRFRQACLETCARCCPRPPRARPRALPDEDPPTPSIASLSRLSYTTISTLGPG
Method: Affinity for CCK2R was studied in A431 human epidermoid carcinoma cells stably transfected with the plasmid pCR3.1 containing the full coding sequence for the human CCK2R (A431-CCK2R) kindly provided by Dr. Luigi Aloj (Aloj L et al., J Nucl Med 2004, 45: 485-494). […] Radioiodination of gastrin-1 was carried out using the chloramine-T method. Non-carrier-added [^125I-Tyr^12]gastrind was obtained by HPLC purification and stored in aliquots at −20° C. Binding assays were carried out in 96-well filter plates (MultiScreenHTS-FB, Merck Group, Darmstadt, Germany) pretreated with 10 mM TRIS/139 mM NaCl pH 7.4 (2×250 μl). For the assay a number of 200,000-400,000 A431-CCK2R cells per well was prepared in 35 mM HEPES buffer pH 7.4 containing 10 mM MgCl2, 14 μM bacitracin and 0.5% BSA (a hypotonic solution disturbing the integrity of the cell membranes). The cells were incubated in triplicates with increasing concentrations of the peptidomimetics (0.0003 to 10,000 nM, for example 0.001 to 1000 nM) and [^125I-Tyr^12]gastrin-I (20,000-60,000 cpm) for 1 h at RT. Incubation was interrupted by filtration of the medium and rapid rinsing with ice-cold 10 mM TRIS/139 mM NaCl pH 7.4 (2×200 μl) and the filters were counted in the gamma-counter. Half maximal inhibitory concentration (IC50) values were calculated following nonlinear regression with Origin software (Microcal Origin 6.1, Northampton, MA) and a representative assay was chosen for comparison.

[1] = biodistribution: uptake in normal tissues; assay type: in vivo, athymic BALB/c nude mice
Method: Biodistribution studies evaluating the tumour uptake of the radiolabelled inventive CCK2R targeting peptide analogues were performed in 7-week-old female athymic BALB/c nude mice (Charles River, Sulzfeld, Germany). All animal experiments were conducted in compliance with the Austrian animal protection laws and with the approval of the Austrian Ministry of Science. For the induction of tumour xenografts, A431-CCK2R and A431-mock cells were injected subcutaneously in the right and left flank respectively (2 million cells in 200 μl). When tumours had reached a size of approximately 0.2 ml biodistribution studies were carried out. Groups of 4 mice were injected intravenously via a lateral tail vein with the peptidomimetics of the present invention, labelled with ^111In (approximately 0.2 MBq and 0.02 nmol peptidomimetic), with ^68Ga (approximately 0.8 MBq and 0.02-0.03 nmol peptidomimetic), with ^177Lu (approximately 0.5 MBq and 0.02 nmol peptidomimetic) or with ^99mTc (approximately 0.3 MBq and 0.02 nmol peptidomimetic). After a time period of 1 or 4 h post-injection (p.i.) the animals were sacrificed by cervical dislocation, tumours and other tissues (blood, lung, heart, muscle, bone, spleen, intestine, liver, kidneys, stomach, pancreas) were removed, weighed, and their radioactivity measured in the gamma counter. Results were expressed as percentage of injected activity per gram tissue (% IA/g) and tumour to organ activity ratios were calculated from the activity measured in the dissected tissues. In FIG. 4 the results of the biodistribution studies at 4 h p.i. are summarized for the ^111In-labelled peptidomimetics of the present invention in comparison with ^111In-DOTA-MGS1 and ^111In-DOTA-MGS4 (Klingler M et al., Eur J Nucl Med Mol Imaging 2017, 44: S228). In FIG. 5 the results for the model peptidomimetics of the present invention, DOTA-MGS5 and HYNIC-MGS5, radiolabelled with different radiometals are shown for different time points of 1 or 4 h p.i. […] The uptake in A431-mock tumour xenografts with values <1% IA/g was very low confirming the high receptor-specific tumour uptake. […] A combination of high stability and increased protein binding in vivo seems therefore to result in an optimal protection of the radioligand against enzymatic degradation in blood allowing reaching an extremely high tumour uptake.

[2] = stability in vivo (radio-HPLC of blood sample); conditions: BALB/c mice, i.v.
Method: To further characterise the stability of the radiolabelled peptidomimetics in vivo, metabolic studies were carried out in 5-6-week-old female BALB/c mice (Charles River, Sulzfeld, Germany) injected intravenously with the ^111In- and […] peptidomimetics. All animal experiments were conducted in compliance with the Austrian animal protection laws and with the approval of the Austrian Ministry of Science. To allow monitoring of the metabolites by radio-HPLC, mice were injected with a higher amount of radioactivity (5-15 MBq ^111In and 20-40 MBq ^177Lu, corresponding to 1-2 nmol total peptide) through a lateral tail vein and euthanized by cervical dislocation 10 or 30 min post injection (p.i.). A sample of blood was collected and the degradation was assessed by radio-HPLC.

serum proteins = experiment: protein binding to serum proteins (Sephadex G-50 size-exclusion chromatography); assay type: in vitro ADME; conditions: 37° C.; for fraction unbound at 4 h, 500 pmol/mL / fraction unbound at 24 h, 500 pmol/mL: fresh human serum; for fraction unbound at 4 h, 500 pmol/mL: read-out: Percentage of radioligand bound to serum proteins after 4 h incubation (converted); for fraction unbound at 24 h, 500 pmol/mL: read-out: Percentage of radioligand bound to serum proteins after 24 h incubation (converted); for Percentage of radioligand bound to serum proteins after 24 h incubation: human serum
Method: Additionally, protein binding to serum proteins was investigated. For this purpose the ^111In-labelled peptidomimetics were incubated in duplicates in fresh human serum at 37° C. (500 pmol/mL) and analyzed after 4 and 24 h by Sephadex G-50 size-exclusion chromatography (GE Healthcare Illustra, Little Chalfont, UK). The percentage of protein binding was determined by measuring the column and the eluate in a 2480 Wizard 2 automatic gamma-counter (Perkin Elmer Life Sciences and Analytical Sciences, Turku, F).

[3] = CCK2R expressing organ, 1 or 4 h p.i.

| Structure (SMILES) | intact radioligand present in the blood at 10 min p.i. [2] [%] | fraction unbound at 4 h, 500 pmol/mL (serum proteins) | fraction unbound at 24 h, 500 pmol/mL (serum proteins) | Percentage of radioligand bound to serum proteins after 24 h incubation (serum proteins) [%] | other results |
| --- | --- | --- | --- | --- | --- |
| CCCC[C@@H](C(=O)N[C@@H](CC(=O)O)C(=O)N[C@@H](Cc1ccc2ccccc2c1)C(N)=O)N(C)C(=O)[C@H](Cc1c[nH]c2ccccc12)NC(=O)CNC(=O)[C@H](Cc1ccc(O)cc1)NC(=O)[C@H](C)NC(=O)[C@@H](CCC(=O)O)NC(=O)CN1CCN(CC(=O)O)CCN(CC(=O)O)CCN(CC(=O)O)CC1 [DOTA-MGS5-2, DOTA-DGlu-Ala-Tyr-Gly-Trp-(N-Me)Nle-Asp-2Nal-NH2] |  |  |  |  | IC50 (human CCK2R): 1.6 ± 0.4 nM |
| CCCC[C@@H](C(=O)N[C@@H](CC(=O)O)C(=O)N[C@@H](Cc1cccc2ccccc12)C(N)=O)N(C)C(=O)[C@H](Cc1c[nH]c2ccccc12)NC(=O)CNC(=O)[C@H](Cc1ccc(O)cc1)NC(=O)[C@H](C)NC(=O)[C@@H](CCC(=O)O)NC(=O)CN1CCN(CC(=O)O)CCN(CC(=O)O)CCN(CC(=O)O)CC1 [^68Ga-DOTA-MGS5, metal not drawn] |  |  |  |  | tissue uptake ([1]; female, athymic BALB/c nude, mouse, blood, lung and heart, iv, total radioactivity, 1 or 4 h p.i., read-out: unspecific tissue uptake in blood, lung and heart): 1 to 2 %ID/g |
| CCCC[C@@H](C(=O)N[C@@H](CC(=O)O)C(=O)N[C@@H](Cc1cccc2ccccc12)C(N)=O)N(C)C(=O)[C@H](Cc1c[nH]c2ccccc12)NC(=O)CNC(=O)[C@H](Cc1ccc(O)cc1)NC(=O)[C@H](C)NC(=O)[C@@H](CCC(=O)O)NC(=O)c1ccc(NN)nc1 [^99mTc-HYNIC-MGS5, metal not drawn] |  |  |  |  | kidney uptake ([1]; 1 or 4 h p.i. (111In-labelled series: 4 h p.i.)): 8 % IA/g; uptake in pancreas [1, 3]: 7 % IA/g; uptake in stomach [1, 3]: 13 % IA/g |
| CCCC[C@@H](C(=O)N[C@@H](CC(=O)O)C(=O)N[C@@H](Cc1cccc2ccccc12)C(N)=O)N(C)C(=O)[C@H](Cc1c[nH]c2ccccc12)NC(=O)CNC(=O)[C@H](Cc1ccc(O)cc1)NC(=O)[C@H](C)NC(=O)[C@@H](CCC(=O)O)NC(=O)CN1CCN(CC(=O)O)CCN(CC(=O)O)CCN(CC(=O)O)CC1 [^111In-DOTA-MGS5, metal not drawn] | 82.7±3.3 | 0.59 | 0.557 |  |  |
| CCCC[C@@H](C(=O)N[C@@H](CC(=O)O)C(=O)N[C@@H](Cc1ccc2ccccc2c1)C(N)=O)N(C)C(=O)[C@H](Cc1c[nH]c2ccccc12)NC(=O)CNC(=O)[C@H](Cc1ccc(O)cc1)NC(=O)[C@H](C)NC(=O)[C@@H](CCC(=O)O)NC(=O)CN1CCN(CC(=O)O)CCN(CC(=O)O)CCN(CC(=O)O)CC1 [^111In-DOTA-MGS5-2, metal not drawn] | 88.4±0.4 | 0.683 | 0.654 | ~30 |  |
| CCCC[C@@H](C(=O)N[C@@H](CC(=O)O)C(=O)N[C@@H](Cc1cccc2ccccc12)C(N)=O)N(C)C(=O)[C@H](Cc1c[nH]c2ccccc12)NC(=O)CNC(=O)[C@H](Cc1ccc(O)cc1)NC(=O)[C@H](C)NC(=O)[C@@H](CCCCN)NC(=O)CN1CCN(CC(=O)O)CCN(CC(=O)O)CCN(CC(=O)O)CC1 [^111In-DOTA-MGS9, metal not drawn] ({DOTA}-[dK]AYGW[NMeNle]D[1Nal]-NH2) | 93.9±1.2 | 0.734 | 0.722 | ~30 | tissue uptake at 4 h ([1]; female, athymic BALB/c nude, mouse, intestine and liver, iv, 0.02 nmol peptidomimetic, total radioactivity, 4 h p.i.): ~2 %ID/g; tissue uptake ([1]; female, athymic BALB/c nude, mouse, kidneys, iv, total radioactivity, 1 or 4 h p.i. (111In-labelled series: 4 h p.i.), read-out: kidney uptake): 20.7 ± 4.4 %ID/g |
| CCCC[C@@H](C(=O)N[C@@H](CC(=O)O)C(=O)N[C@@H](Cc1cccc2ccccc12)C(N)=O)N(C)C(=O)[C@H](Cc1c[nH]c2ccccc12)NC(=O)CNC(=O)[C@@H]1CCCN1C(=O)[C@H](Cc1ccc(O)cc1)NC(=O)[C@@H](CCC(=O)O)NC(=O)CN1CCN(CC(=O)O)CCN(CC(=O)O)CCN(CC(=O)O)CC1 [^111In-DOTA-MGS10, metal not drawn] ({DOTA}-[dE]YPGW[NMeNle]D[1Nal]-NH2) | 82.3±1.8 | 0.433 |  |  |  |
| CCCC[C@@H](C(=O)N[C@@H](CC(=O)O)C(=O)N(C)[C@@H](Cc1cccc2ccccc12)C(N)=O)N(C)C(=O)[C@H](Cc1c[nH]c2ccccc12)NC(=O)CNC(=O)[C@H](Cc1ccc(O)cc1)NC(=O)[C@H](C)NC(=O)[C@@H](CCC(=O)O)NC(=O)CN1CCN(CC(=O)O)CCN(CC(=O)O)CCN(CC(=O)O)CC1 [^111In-DOTA-MGS11, metal not drawn] | 98.4±0.1 | 0.681 | 0.602 | ~30 |  |
| CCCC[C@H](NC(=O)[C@H](Cc1c[nH]c2ccccc12)NC(=O)CNC(=O)[C@H](Cc1ccc(O)cc1)NC(=O)[C@H](C)NC(=O)[C@@H](CCC(=O)O)NC(=O)[C@@H](CCC(=O)O)NC(=O)[C@@H](CCC(=O)O)NC(=O)[C@@H](CCC(=O)O)NC(=O)[C@@H](CCC(=O)O)NC(=O)[C@@H](CCC(=O)O)NC(=O)CN1CCN(CC(=O)O)CCN(CC(=O)O)CCN(CC(=O)O)CC1)C(=O)N[C@@H](CC(=O)O)C(=O)N[C@@H](Cc1ccccc1)C(N)=O [^177Lu-PP-F11N, metal not drawn, reference compound] | 22.3 |  |  |  | intact radioligand present in the blood at 30 min p.i. ([2]; 30 min p.i.): 12.7% |
